For assay [1], the system named is human HepG2 cells. Description: Iodine labeled LDL binding in HepG2 cells in culture. The note with it: 2 μM or 5 μM tested, added 24-48 hr after incubation began, FIG. 1a. Format: cell-based. On the procedure:
(§1) With reference to FIGS. 1a-b, an experiment was conducted wherein iodine labeled LDL was incubated with HepG2 or rat hepatocytes in culture with and without cleaved α1 -antitrypsin or hypocholesterolemic peptides. The cleaved α1 -antitrypsin and hypocholesterolemic peptides were added 24-48 hr after incubation began in 2 micromolar (μM) or 5 μM concentrations. The bound LDL was quantitated by counting. The control indicates the amount of bound LDL obtained when no cleaved α1 -antitrypsin or hypocholesterolemic peptides are present. FIGS. 1a-b show maximum LDL binding occurs when 2 μM α1 -antitrypsin or its peptide derivatives are added.
An acetyl derivative of SEQ ID No. 16 was tested experimentally in human Hep G2 cells for LDL binding in the same manner as described above in connection with FIGS. 1a-b. […] ID No. 16. The sub-fragment was added 24-48 hours after incubation began in concentrations ranging from 0.13-1.4 μM.

In assay [2] the test system is rat hepatocytes. In words: Iodine labeled LDL binding in rat hepatocytes in culture. The note with it: 2 μM or 5 μM tested, added 24-48 hr after incubation began, FIG. 1b. Format: cell-based. On the procedure: as §1

As for α1 -antitrypsin, the “concentration at which maximum LDL binding occurs” value in assay [1] and in assay [2] was 2 µM in each case.

For the origin of these results see patent US6150332A, “Method and composition for lowering low density lipoprotein cholesterol” (Virginia Commonwealth University, priority 1998, dated 2000).
